Tests used:
Format in all cases: binding
[1] = target: kinases (KINOMEscan panel) (Homo sapiens, UniProt P06241); details: kinase FYN; NEW KINOMEscan
[2] = target: kinases (KINOMEscan panel) (Homo sapiens, UniProt Q13555); details: CAMK2G; NEW KINOMEscan
[3] = target: T1, kinases (KINOMEscan panel) (Homo sapiens, UniProt Q6P3R8); details: kinase NEK5; NEW KINOMEscan
T1 sequence (Q6P3R8 1-708): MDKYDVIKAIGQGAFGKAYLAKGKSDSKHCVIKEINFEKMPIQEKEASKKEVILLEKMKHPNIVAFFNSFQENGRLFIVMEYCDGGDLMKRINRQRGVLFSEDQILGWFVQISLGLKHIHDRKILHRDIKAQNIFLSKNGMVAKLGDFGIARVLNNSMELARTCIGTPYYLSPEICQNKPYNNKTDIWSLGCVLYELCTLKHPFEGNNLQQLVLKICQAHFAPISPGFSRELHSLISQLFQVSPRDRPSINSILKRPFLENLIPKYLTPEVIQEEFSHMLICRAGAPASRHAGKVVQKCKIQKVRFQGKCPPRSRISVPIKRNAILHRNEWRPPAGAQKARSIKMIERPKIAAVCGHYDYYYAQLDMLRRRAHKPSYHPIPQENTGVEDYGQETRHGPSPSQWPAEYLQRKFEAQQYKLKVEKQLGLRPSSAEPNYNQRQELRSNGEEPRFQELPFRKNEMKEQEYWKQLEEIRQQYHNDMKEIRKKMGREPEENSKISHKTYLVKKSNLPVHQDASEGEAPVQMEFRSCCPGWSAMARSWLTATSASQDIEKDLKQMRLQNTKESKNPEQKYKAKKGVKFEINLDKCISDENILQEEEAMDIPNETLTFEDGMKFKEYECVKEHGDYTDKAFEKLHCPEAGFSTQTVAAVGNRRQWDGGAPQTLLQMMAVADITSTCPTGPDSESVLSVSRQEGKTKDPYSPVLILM

[4] = target: kinases (KINOMEscan panel) (Homo sapiens, UniProt P57059); details: kinase SIK1; NEW KINOMEscan
[5] = target: T2, kinases (KINOMEscan panel) (Homo sapiens, UniProt O00329); details: NEW KINOMEscan
T2 sequence (O00329 1-1044): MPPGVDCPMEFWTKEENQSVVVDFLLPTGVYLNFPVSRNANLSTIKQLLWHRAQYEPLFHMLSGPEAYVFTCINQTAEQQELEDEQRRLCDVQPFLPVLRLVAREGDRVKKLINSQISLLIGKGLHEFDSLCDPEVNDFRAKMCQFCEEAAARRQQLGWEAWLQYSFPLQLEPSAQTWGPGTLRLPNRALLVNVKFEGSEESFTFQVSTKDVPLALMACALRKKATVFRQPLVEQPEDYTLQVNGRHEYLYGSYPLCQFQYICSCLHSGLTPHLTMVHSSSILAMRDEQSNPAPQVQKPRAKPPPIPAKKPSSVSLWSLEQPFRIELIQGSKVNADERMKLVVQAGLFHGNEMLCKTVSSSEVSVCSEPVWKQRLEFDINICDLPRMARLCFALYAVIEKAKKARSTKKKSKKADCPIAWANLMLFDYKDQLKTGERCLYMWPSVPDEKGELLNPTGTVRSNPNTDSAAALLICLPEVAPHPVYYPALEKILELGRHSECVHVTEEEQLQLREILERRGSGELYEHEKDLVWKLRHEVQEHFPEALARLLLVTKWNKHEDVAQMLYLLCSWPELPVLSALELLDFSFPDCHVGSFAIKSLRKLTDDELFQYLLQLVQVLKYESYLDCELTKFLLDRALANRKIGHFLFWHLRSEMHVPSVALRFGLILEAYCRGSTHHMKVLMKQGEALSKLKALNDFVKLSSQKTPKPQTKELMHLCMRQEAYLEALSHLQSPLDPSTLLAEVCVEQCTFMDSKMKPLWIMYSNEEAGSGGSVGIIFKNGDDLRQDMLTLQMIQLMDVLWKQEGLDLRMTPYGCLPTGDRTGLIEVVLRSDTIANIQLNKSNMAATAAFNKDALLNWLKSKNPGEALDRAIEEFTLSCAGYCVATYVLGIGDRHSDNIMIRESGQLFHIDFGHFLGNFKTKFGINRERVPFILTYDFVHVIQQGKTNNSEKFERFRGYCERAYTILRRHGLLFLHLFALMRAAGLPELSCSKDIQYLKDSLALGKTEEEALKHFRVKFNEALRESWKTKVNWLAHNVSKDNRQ

[6] = target: kinases (KINOMEscan panel) (Homo sapiens, UniProt P00533, G719S); details: EGFR(G719S); NEW KINOMEscan
[7] = target: T3, kinases (KINOMEscan panel) (Homo sapiens, UniProt Q6XUX3); details: DSTYK; NEW KINOMEscan
T3 sequence (Q6XUX3 1-929): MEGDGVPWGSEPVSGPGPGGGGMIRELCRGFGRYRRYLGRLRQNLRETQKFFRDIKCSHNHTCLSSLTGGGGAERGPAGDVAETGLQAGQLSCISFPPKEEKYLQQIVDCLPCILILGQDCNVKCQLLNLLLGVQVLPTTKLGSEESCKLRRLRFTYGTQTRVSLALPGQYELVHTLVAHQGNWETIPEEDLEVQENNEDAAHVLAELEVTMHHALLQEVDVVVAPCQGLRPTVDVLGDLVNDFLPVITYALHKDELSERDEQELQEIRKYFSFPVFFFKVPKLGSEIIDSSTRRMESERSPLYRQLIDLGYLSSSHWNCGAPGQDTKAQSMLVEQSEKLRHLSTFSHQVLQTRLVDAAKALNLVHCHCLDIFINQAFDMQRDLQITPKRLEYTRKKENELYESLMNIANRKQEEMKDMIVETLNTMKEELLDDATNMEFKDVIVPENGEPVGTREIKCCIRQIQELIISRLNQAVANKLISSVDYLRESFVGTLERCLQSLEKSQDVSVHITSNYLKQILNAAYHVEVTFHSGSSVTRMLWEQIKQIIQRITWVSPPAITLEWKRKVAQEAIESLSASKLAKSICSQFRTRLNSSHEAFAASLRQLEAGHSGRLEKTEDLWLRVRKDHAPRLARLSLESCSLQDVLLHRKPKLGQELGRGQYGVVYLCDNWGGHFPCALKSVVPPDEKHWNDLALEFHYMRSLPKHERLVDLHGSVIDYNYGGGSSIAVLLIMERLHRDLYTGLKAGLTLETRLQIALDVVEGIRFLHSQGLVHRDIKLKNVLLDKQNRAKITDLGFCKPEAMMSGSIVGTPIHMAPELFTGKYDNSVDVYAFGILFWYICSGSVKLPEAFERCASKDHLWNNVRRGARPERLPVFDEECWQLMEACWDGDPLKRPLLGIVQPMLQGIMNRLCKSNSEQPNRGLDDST

Chain of kinases (KINOMEscan panel) (Homo sapiens, UniProt Q13555) (Q13555 whole entry): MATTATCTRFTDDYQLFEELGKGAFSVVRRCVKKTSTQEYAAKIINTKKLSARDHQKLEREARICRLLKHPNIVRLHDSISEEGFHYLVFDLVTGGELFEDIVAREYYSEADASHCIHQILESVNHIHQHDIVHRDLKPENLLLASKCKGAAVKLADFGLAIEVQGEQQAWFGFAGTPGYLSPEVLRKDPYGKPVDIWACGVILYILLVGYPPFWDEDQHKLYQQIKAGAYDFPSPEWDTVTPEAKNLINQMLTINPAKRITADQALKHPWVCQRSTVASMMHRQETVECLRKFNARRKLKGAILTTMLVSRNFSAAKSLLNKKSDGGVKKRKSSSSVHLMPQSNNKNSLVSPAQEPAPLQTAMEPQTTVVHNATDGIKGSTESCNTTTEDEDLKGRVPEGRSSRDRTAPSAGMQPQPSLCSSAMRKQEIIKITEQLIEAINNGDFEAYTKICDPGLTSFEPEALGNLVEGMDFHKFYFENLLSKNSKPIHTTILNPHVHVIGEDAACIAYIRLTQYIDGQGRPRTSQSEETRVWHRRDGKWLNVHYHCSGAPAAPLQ
Chain of kinases (KINOMEscan panel) (Homo sapiens, UniProt P57059) (P57059 whole entry): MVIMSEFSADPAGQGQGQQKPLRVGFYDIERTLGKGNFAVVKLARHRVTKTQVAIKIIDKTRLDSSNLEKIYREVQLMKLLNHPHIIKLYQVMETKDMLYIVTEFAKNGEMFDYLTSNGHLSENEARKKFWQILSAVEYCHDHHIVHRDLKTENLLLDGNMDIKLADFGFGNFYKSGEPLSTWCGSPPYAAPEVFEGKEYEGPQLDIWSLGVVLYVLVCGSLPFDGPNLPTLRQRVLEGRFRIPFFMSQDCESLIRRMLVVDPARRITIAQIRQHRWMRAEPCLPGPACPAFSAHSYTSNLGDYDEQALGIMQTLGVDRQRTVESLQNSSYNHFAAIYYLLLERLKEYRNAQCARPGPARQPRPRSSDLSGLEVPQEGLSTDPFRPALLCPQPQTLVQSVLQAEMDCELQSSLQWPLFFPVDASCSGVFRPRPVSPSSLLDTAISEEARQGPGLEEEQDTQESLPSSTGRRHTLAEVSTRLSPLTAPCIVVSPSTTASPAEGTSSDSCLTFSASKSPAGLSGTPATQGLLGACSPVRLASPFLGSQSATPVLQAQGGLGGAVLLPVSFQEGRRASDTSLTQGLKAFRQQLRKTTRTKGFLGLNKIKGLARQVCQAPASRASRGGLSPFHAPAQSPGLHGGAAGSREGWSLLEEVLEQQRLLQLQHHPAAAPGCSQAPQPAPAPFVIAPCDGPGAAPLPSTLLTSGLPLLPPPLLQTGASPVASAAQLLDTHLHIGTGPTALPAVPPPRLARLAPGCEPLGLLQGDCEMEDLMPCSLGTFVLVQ
Chain of kinases (KINOMEscan panel) (Homo sapiens, UniProt P00533, G719S) (P00533 25-1210 G719S): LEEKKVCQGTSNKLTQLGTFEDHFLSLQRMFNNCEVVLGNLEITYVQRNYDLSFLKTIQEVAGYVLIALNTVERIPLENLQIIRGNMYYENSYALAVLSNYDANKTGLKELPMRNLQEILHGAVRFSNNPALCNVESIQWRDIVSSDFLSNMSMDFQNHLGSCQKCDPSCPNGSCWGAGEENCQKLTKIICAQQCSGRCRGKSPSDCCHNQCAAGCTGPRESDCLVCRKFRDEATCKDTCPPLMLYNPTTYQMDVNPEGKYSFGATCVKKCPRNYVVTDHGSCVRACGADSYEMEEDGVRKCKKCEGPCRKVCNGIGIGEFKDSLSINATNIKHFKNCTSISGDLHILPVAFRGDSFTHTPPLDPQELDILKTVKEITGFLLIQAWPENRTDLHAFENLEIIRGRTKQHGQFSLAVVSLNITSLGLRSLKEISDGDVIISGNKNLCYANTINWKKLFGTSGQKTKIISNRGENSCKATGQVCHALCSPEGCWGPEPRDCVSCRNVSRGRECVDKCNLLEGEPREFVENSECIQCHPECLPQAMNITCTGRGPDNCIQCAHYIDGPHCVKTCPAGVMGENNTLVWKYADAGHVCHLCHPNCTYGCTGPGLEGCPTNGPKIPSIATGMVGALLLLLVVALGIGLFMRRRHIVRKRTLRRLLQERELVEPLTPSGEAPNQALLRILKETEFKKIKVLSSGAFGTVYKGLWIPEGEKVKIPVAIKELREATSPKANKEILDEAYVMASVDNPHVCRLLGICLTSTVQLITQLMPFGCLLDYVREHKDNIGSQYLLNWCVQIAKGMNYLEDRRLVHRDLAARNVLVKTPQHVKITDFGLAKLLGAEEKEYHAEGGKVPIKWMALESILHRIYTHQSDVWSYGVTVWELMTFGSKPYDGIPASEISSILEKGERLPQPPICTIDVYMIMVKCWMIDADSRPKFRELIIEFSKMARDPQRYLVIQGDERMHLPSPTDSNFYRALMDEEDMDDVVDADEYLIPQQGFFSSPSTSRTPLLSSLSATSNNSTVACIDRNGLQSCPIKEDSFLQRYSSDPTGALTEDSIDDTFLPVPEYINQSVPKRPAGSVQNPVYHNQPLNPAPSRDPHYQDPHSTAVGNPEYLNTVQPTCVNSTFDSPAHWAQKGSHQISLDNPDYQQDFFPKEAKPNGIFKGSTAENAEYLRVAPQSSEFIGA
Chain of kinases (KINOMEscan panel) (Homo sapiens, UniProt P06241) (P06241 whole entry): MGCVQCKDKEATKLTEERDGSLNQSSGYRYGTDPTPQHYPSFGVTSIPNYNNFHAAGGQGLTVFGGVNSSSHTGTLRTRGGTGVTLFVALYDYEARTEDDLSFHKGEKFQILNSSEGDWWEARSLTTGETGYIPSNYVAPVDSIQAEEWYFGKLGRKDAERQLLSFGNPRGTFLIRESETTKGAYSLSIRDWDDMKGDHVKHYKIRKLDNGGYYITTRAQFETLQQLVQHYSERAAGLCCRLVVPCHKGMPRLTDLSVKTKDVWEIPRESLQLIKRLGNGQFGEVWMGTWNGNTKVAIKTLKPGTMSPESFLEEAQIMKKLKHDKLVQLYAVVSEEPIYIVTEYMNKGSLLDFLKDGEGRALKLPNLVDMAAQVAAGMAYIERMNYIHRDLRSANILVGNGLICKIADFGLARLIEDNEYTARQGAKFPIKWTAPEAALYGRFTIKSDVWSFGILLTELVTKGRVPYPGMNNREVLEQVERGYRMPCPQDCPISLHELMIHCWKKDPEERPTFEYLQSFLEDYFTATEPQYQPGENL

SMILES	KINOMEscan FYN [1]	KINOMEscan CAMK2G [2]	KINOMEscan NEK5 [3]	KINOMEscan SIK1 [4]	KINOMEscan PIK3CD [5]	KINOMEscan EGFR(G719S) [6]	KINOMEscan DSTYK [7]
Cc1cccc(-c2nc(Nc3ccc4nn(C)cc4c3)c3ccccc3n2)n1 [NK167]	0	0	0	1	0	0	0
Cc1cccc(-c2nc(N(C)c3ccc4ncsc4c3)c3ccccc3n2)n1 [NK-161]	0	0	0	12	2	0	0

— article PMC9851200, “Multiparameter phenotypic screening for endogenous TFEB and TFE3 translocation identifies novel chemical series modulating lysosome function” (Autophagy, 2022)
